Laboratory results reported in US7202239B2, “Cyclohexylphenyl carboxamides tocolytic oxytocin receptor antagonists” (Wyeth, priority 2001, dated 2007).

Biological target: human vasopressin V1a receptor subtype (Homo sapiens, UniProt P37288)
Experiment: Vasopressin binding in CHO cell membranes expressing human vasopressin V1a subtype receptors
Conditions: 100 nM, [3H]Manning ligand
Description: Vasopressin Binding in Chinese Hamster Ovary Cell Membranes Expressing Human Vasopressin V1a Subtype Receptors
Chinese hamster ovary cells (CHO cells) stably transfected with the human vasopressin V1a subtype receptors were either obtained from Biosignal Inc., 1744 rue Williams, Montreal, Quebec, Canada or obtained from M. Thibonnier, Case Western Reserve University School of Medicine, Cleveland, Ohio. A. Passaging and Amplification of Cells: CHO cells transfected with the human vasopressin V1a subtype receptors obtained from M. Thibonnier (pZeoSV vector) are allowed to grow to confluency (approx. >90%) in T-150 flasks under sterile conditions, in a cell culture medium of F-12 Nutrient Mixture (HAM) with L-glutamine (Gibco Cat. # 11765-054) containing 15 mM HEPES (Gibco Cat. 15630-080), 1% antibiotic/antimycotic (add 5 mL 100×, Gibco Cat. 15240-062 per 500 mL F-12), 250 μg/mL Zeocin (add 1.25 mL of 100 mg/mL Invitrogen R-250-01 per 500 mL F-12) and 10% Fetal Bovine Serum (Qualified, heat inactivated, Gibco Cat. # 16140-063). The medium is removed by aspiration and the cells are washed with 10 mL of Hank's Balanced Salt solution (Gibco Cat. # 14175-095). The salt solution is removed by aspiration and the cells are trypsinized with 5 mL of trypsin-EDTA (0.05% trypsin, 0.53 mM EDTA-4Na, Gibco Cat. # 25300-070) for 1 min. The trypsin is removed by aspiration and the cells dislodged by tapping. Cell Culture medium (eg, 30 mL for 1:30 split) is immediately added and mixed well to inactivate trypsin. 1 mL of detached cells is added to new culture flasks containing fresh cell culture medium (eg, into 25 mL per T-150 flask), and mixed gently. The cells are incubated at 37° C. in 5% CO2. The medium is changed at 3 to 4 days interval (or as appropriate). The cells grow to confluency (approx. >75%–95%) within 7–8 days. All steps are done under sterile conditions. B. Membrane Preparation: The cells are washed twice gently with Hank's Balanced Salt solution (e.g,. use 10 mL per T-150 flask). The excess is removed and the cells are bathed for 15–30 min. in an enzyme-free Cell Dissociation Buffer (e.g. use 8 mL Hank's Based, Gibco Cat. # 13150-016 per T-150 flask) until the cells are loosened. The contents are transferred to centrifuge tubes (50 mL) kept in an ice bath. All subsequent steps are done at 4° C. The tubes are centrifuged at 300×g for 15 min (1380 rpm on SORVAL, Model RT6000D, using rotor for the 50 mL tubes). The supernatant is discarded and the cells suspended in homogeneizing buffer(10 mM Tris-HCl containing 0.25 M sucrose and 1 mM EDTA, pH 7.4) ensuring that the volume of the buffer is about ten times the volume of the cell pellet. The cells are pooled into a centrifuge tube (50 mL) and homogenized with Polytron at setting 6 for 10 sec. The homogenate is transferred into a Potter-Elvjehm homogenizer and homogenized with 3 strokes. The homogenate is centrifuged at 1500× g for 10 min at 4° C. (3100 rpm using SORVAL, model RT6000D, using the rotor for 50 mL tubes). The pellet is discarded. The supernatant is centrifuged at 100,000×g for 60 min. at 4° C. (Beckman L8-80M ultracentrifuge; spin at 37,500 rpm with rotor type 70 Ti for 50 mL tubes; 38,000 rpm with type 80Ti for 15 mL tubes; or 35,800 rpm with rotor type 45Ti). The supernantant is discarded and the pellet suspended in 3 to 4 mL of Tris buffer (50 mM TRIS-HCl, pH 7.4). The protein content is estimated by the Bradford or Lowry method. The volume of the membrane suspension is adjusted with the membrane buffer (50 mM Tris-HCl containing 0.1% BSA and 0.1 mM PMSF) to give 3.0 mg/mL (or as appropriate) of protein. The membranes are aliquoted and stored at −70° C. C. […]

Chain of human vasopressin V1a receptor subtype (P37288 whole entry): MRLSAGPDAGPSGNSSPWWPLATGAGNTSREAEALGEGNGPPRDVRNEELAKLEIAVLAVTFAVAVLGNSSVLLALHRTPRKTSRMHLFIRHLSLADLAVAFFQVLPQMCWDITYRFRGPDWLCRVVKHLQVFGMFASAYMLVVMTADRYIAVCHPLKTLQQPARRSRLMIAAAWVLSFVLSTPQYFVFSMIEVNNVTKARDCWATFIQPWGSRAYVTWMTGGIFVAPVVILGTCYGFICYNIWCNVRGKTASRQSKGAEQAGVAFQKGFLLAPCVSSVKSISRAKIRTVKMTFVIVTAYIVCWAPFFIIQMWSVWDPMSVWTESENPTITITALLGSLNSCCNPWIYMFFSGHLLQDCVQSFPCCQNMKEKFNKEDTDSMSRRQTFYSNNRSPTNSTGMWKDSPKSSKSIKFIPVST

inhibition at 0.1 µM [%]	V1a % inhibition at 100 nM [%]	SMILES
20	–	O=C(NCc1ccncc1)c1ccc2n1Cc1ccccc1N(C(=O)c1ccc(C3CCCCC3)cc1)C2 [Example 53, 10-(4-Cyclohexyl-benzoyl)-N-(4-pyridinylmethyl)-10,11-dihydro-5H-pyrrolo[2,1-c][1,4]benzodiazepine-3-carboxamide]
–	0	O=C(c1ccc2n1Cc1ccccc1N(C(=O)c1ccc(C3CCCCC3)cc1)C2)N1CCN(c2ccncc2)CC1 [Example 54, [10-(4-Cyclohexyl-benzoyl)-10,11-dihydro-5H-pyrrolo[2,1-c][1,4]benzpdiazepin-3-yl][4-(4-pyridinyl)-1-piperazinyl]-methanone]
16	–	O=C(c1ccc(C2CCCCC2)cc1)N1Cc2ccc(C(=O)n3ccnc3)n2Cc2ccccc21 [Example 56, 1H-Imidazol-1-yl-[10-(4-cyclohexyl-benzoyl)-10,11-dihydro-5H-pyrrolo[2,1-c][1,4]benzodiazepin-3-yl]-methanone]

Continued, compound first:

SMILES	inhibition at 0.1 µM [%]	V1a % inhibition at 100 nM [%]
O=C(NCc1ccccn1)c1ccc2n1Cc1ccccc1N(C(=O)c1ccc(C3CCCCC3)cc1)C2 [Example 50, 10-(4-Cyclohexyl-benzoyl)-N-(2-pyridinylmethyl)-10,11-dihydro-5H-pyrrolo[2,1-c][1,4]benzodiazepine-3-carboxamide]	3	–
O=C(NCc1cccnc1)c1ccc2n1Cc1ccccc1N(C(=O)c1ccc(C3CCCCC3)cc1)C2 [Example 51, 10-(4-Cyclohexyl-benzoyl)-N-(3-pyridinylmethyl)-10,11-dihydro-5H-pyrrolo [2,1-c][1,4]benzodiazepine-3-carboxamide]	-1	–
CN(CCc1ccccn1)C(=O)c1ccc2n1Cc1ccccc1N(C(=O)c1ccc(C3CCCCC3)cc1)C2 [Example 52, 10-(4-Cyclohexyl-benzoyl)-N-methyl-N-[2-(2-pyridinyl)-ethyl]-10,11-dihydro-5H-pyrrolo[2,1-c][1,4]benzodiazepine-3-carboxamide]	19	–
CN(CCc1ccncc1)C(=O)c1ccc2n1Cc1ccccc1N(C(=O)c1ccc(C3CCCCC3)cc1)C2 [Example 55, 10-(4-Cyclohexyl-benzoyl)-N-methyl-N-[2(4-pyridinyl)ethyl]-10,11-dihydro-5H-pyrrolo[2,1-c][1,4]benzodiazepine-3-carboxamide]	50	–
CN(Cc1cccnc1)C(=O)c1ccc2n1Cc1ccccc1N(C(=O)c1ccc(C3CCCCC3)cc1)C2 [Example 57, 10-(4-Cyclohexyl-benzoyl)-N-methyl-N-(3-pyridinylmethyl)-10,11-dihydro-5H-pyrrolo[2,1-c][1,4]benzodiazepine-3-carboxamide]	-5	–
